# Reference: patent US20250375528A1, “CONJUGATE OF CELL-PENETRATING PEPTIDE AND MELPHALAN, AND PREPARATION CONTAINING CONJUGATE” (priority 2021, published 2025)
# Read-outs that look alike come from different tables or passages of the source. Where a SMILES comes first, the peptide text is derived from it. Where no end group is shown, it is not given here. [ ]: non-standard residue; d: D form. ξ: configuration not given here. ξPhe(4-N(CH2CH2Cl)2) = NC(Cc1ccc(N(CCCl)CCCl)cc1)C(=O)O
# Columns and labels:
# ARPE-19 cells [1] = assay type: cell-based; settings: ARPE-19, 4 hrs co-incubation then 24 h fresh medium, MTT
# Description: (§1) The ARPE-19 and WERI-Rb-1 cells with good growth status in the logarithmic phase were placed on 96 well plates at a density of 2000 cells/well. After incubation for 24 hrs, the drug solutions at different concentrations were added. The ARPE-19 cells were incubated at 37° C. for 4 hrs. Then, the drug solutions were discarded. The plates were washed with PBS thrice. The fresh medium was then added and incubated for 24 h. Then, 0.5 mg/mL MTT was added and incubated at 37° C. for 4 hrs. The culture solution was discarded. To each well DMSO (150 μl) was added, and the plates were shaken on a shaker for 20 min. Then, the OD490nm value was measured. For the WERI-Rb-1 cells, they were incubated with drug solutions for 4 hrs, and CCK-8 reagent (10 μL) was added to each well. The plates were incubated at 37° C. for 2 hrs. The OD490nm value was measured directly. In addition, zero_adjustment wells and negative control wells (cell survival rate 100%) were set.
# WERI-Rb-1 cells = assay type: cell-based; settings: WERI-Rb-1, 4 hrs co-incubation, CCK-8
# Description: as §1
# HCEC cells [2] = test: cells; assay type: cell-based; settings: 4 hrs co-incubation then 24 h fresh medium, MTT
# Description: The survivals of the HCEC, ARPE-19 and WERI-Rb-1 cells after co-incubation with polypeptides or conjugates were investigated by the MTT or CCK-8 methods (n=4). The HCEC or ARPE-19 cells were co-incubated with polypeptides or conjugates for 4 hrs, followed by incubation in fresh medium for 24 h before addition of MTT for detection. The WERI-Rb-1 cells were co-incubated with the polypeptides or conjugates for 4 hrs, and then CCK-8 was added directly for detection. The cells under normal culture conditions were used as negative control (100% survival).
# as §1
# [3] = Hematology safety evaluation (complete blood cell count); assay type: in vivo, ICR mice; settings: eye dropping 2 times a day for 2 weeks
# Description: Safety evaluation of 89WP-Mel eye drops: it is likely that the eye drops may be absorbed systemically, while the chemotherapeutic drug melphalan may cause systemic toxicity. The representative side effects include bone marrow suppression, etc. Thus, hematology evaluation was performed in the administration groups to determine the safety of the eye drops. Healthy male ICR mice (18-20 g) were subjected to the administration according to the regimen of pharmacodynamic evaluation experiment, wherein the frequency of eye dropping the normal saline, melphalan solution, and 89WP-Mel solution was changed to 2 times a day for 2 weeks, and the melphalan intravitreal injection was performed once a week. At the end of administration, 200 μL of whole blood was taken, anticoagulated with EDTA, and subjected to a complete blood cell count.
# Fluc/GFP-Rb-1 cells [4] = test: In vivo safety evaluation in orthotopic tumor-bearing mouse model
# Description: Before the experiments, the healthy male Balb/c-nude mice (4 weeks old) were subjected to ophthalmic examination to ensure the normal eyes. Amobarbital sodium (40 mg/kg) was injected intraperitoneally to the mice for general anesthesia, the commercially available 0.4% oxybuprocaine hydrochloride eye drops were administrated to the surface of the eyes for local anesthesia of the eye surface, and the commercially available 0.5% tropicamide eye drops were administrated for pupil dilation. The Fluc/GFP-Rb-1 cells (resuspended in 10 mM PBS at a density of 1×10^4 cells/μL) were injected into the vitreous body of the mice via a micro-syringe (33 G, Hamilton), 2 μL cell suspension for each eye.
# For the tumor-bearing mice, administration was performed by ocular surface dropping.
# Detection scheme: At the end of 1 month administration, the mice were euthanized by an overdose of anesthesia (anaobarbital sodium, 150 mg/kg). The cardiac perfusion was performed sequentially with normal saline and 4% paraformaldehyde. The eyeballs, hearts, liver, spleen, lung, kidney, brain and other organs were harvested and dehydrated overnight in 15% and 30% sucrose solutions gradient. The HE stained sections and immunohistochemical sections were made and observed.
# [5] = Solubility assay in normal saline (HPLC); assay type: physicochemical; settings: 37° C.
# Description: Liquid chromatography detection conditions for melphalan: column: YMC-Pack ODS-A column (150×4.6 mm, 5 μm); mobile phase: 40% acetonitrile solution; flow rate: 0.7 mL/min; column temperature: 25° C.; detection wavelength: 260 nm; injection volume: 10 μL.
# Solubility assay: melphalan 0.1 mg was accurately weighted and dispersed in 1 mL normal saline, ultrasonicated for 5 min, incubated at 37° C. for 24 hrs, and filtered through 0.22 μm filter membrane. The peak area of the sample was obtained by liquid chromatography. The concentration of the sample was calculated by substituting the peak area in the standard curve equation.
# Liquid chromatography detection conditions for 89WP-Mel and 289WP-Mel: column: YMC-Pack ODS-A column (150×4.6 mm, 5 μm); mobile phase: 5-65% acetonitrile (with 0.1% TFA), 30 min; flow rate: 0.7 mL/min; column temperature: 25° C.; detection wavelength: 214 nm; injection volume: 10 μL.
# Solubility assay: The excess amount of 89WP-Mel or 289WP-Mel was dispersed in 60 μL normal saline, ultrasonicated for 5 min, incubated at 37° C. for 24 hrs, filtered through 0.22 μm filter membrane, and then diluted 10 times and 20 times respectively. The peak area of the samples was obtained by liquid chromatography. The concentration of the samples was calculated by substituting the peak area in the standard curve equation.
# The samples were incubated in normal saline at 37° C. and 160 rpm for 24 h to obtain the saturated solutions. The solubility of the conjugates is converted to the solubility of melphalan moiety.
# Fluc/GFP-Rb-1 cells [6] = test: Intraocular pharmacodynamic evaluation in tumor-bearing mice; assay type: in vivo
# Description: Specifically, D-luciferin (150 mg/kg) was injected intraperitoneally into each mouse, followed by general anesthesia with isoflurane. Twenty minutes after anesthesia, ocular bioluminescence signals were collected, with 30 seconds exposure time. On the day of administration (D0) and at the corresponding time points after administration, the bioluminescence signals of the mice eyeballs in each group were collected. […] The whole brain tissue was harvested. The immunohistochemical sections were made and observed.
# [7] = system: retinoblastoma (Fluc/GFP-Rb-1) cells; test: Eye drops for treatment of intraocular retinoblastoma, mouse model; assay type: in vivo, Balb/c nude mice; settings: for mice with obvious tumor areas in the brain sections: 8 mice per group
# Description: Construction of retinoblastoma mouse model: the male Balb/c nude mice (18-20 g) were subjected to general anesthesia by intraperitoneal injection of amobarbital sodium (30 mg/kg). The 0.4% oxybuprocaine hydrochloride was administrated for local anesthesia of the eye surface. After the anesthesia, the 0.5% tropicamide was administrated for pupil dilation. The retinoblastoma (Fluc/GFP-Rb-1) cells (resuspended in 2 μL 10 mM PBS, 2×10^4 cells for each mouse) were slowly injected into the vitreous body near retina via a micro-syringe (33 G, Hamilton). After the injection, 0.25% chloramphenicol was dropped to the ocular surface to prevent ocular inflammation. Then, it is determined whether the model was successfully established according to the bioluminescent signal intensity in the eyes of the mice. The successfully established model mice were randomly divided into 4 groups, with 8 mice in each group.
# During the 60-day pharmacodynamic evaluation experiment, the dosage regimens for the different mice groups are as follows: Group 1: eye dropping with normal saline once a day, 10 μL for each dropping; Group 2: eye dropping with 3.0 mg/mL melphalan solution once a day, 10 μL for each dropping; Group 3: eye dropping with 89WP-Mel solution (containing 3.0 mg/mL melphalan) once a day, 10 μL for each dropping; Group 4: intravitreal injection with 0.5 mg/mL melphalan solution once every two weeks, 2 μL for each injection.
# The method of efficacy evaluation is as follows: on Day 0, 2, 4, 6, 9, 12, 15, 17, 20, 25 and 30 after the administration, the mice in each group were injected intraperitoneally with 150 mg/kg D-Luciferin, followed by anesthesia with isoflurane for 15 min. The bioluminescent signal intensity in the eyes of the mice was detected by IVIS Spectrum system (PerkinElmer, USA).
# red blood cells = test: Ability to lyse red blood cells at different pH; assay type: cell-based
# Description: The red blood cells were resuspended at a density of 7×10^7 cells/mL in incubation medium at different pHs. The cell suspension (75 μL) was mixed with 75 μL of aqueous solution of test sample. Pure water was set as a negative control, and 1 μL Triton X-100 dissolved in 74 μL pure water was set as a positive control. Incubation was performed at 37° C. for 1 h in an air shaker at 200 rpm. After incubation, the samples were centrifugated at 1000 g for 5 min. The supernatant (100 μL) was taken to measure the OD450 nm/750 nm via microplate reader.
# HCEC cells [8] = test: Intracellular distribution by laser confocal microscope; assay type: cell-based; settings: 3 μM, 37° C., 4 hrs
# Description: (§2) The HCEC and ARPE-19 cells with good growth status in the logarithmic phase were placed in 4-chamber confocal dishes at a density of 1×10^4 cells/well and incubated for 24 hrs. The drug solutions (all comprising 3 μM fluorescein) were added and incubated at 37° C. for 3.5 hrs. LysoTracker was then added and incubated for 0.5 hrs. Then, the drug solutions were discarded. After being washed with cold 10 mM PBS (containing 0.02 mg/mL heparin sodium) thrice and fixed with 4% paraformaldehyde, the nuclei were stained with DAPI.
# ARPE-19 cells [9] = test: as above; assay type: cell-based; settings: ARPE-19, 3 μM, 37° C., 4 hrs
# Description: as §2
# [10] = Ocular pharmacokinetic evaluation after eye dropping; assay type: in vivo, mice
# Description: The distribution and elimination behavior of the conjugates in the eye tissues was investigated by dropping the drugs into the conjunctival sac of the mice. The conjugate solution 10 μL (at a concentration of 30 μM) was dropped into the conjunctival sac of the mice. The eyelids were gently closed to make the solution distributed evenly. […] The eyeballs were taken out and fixed with FAS eyeball fixative solution for 24 hours, dehydrated with 15% and 30% sucrose solution gradients, and then embedded in OCT to prepare 8 μm thick eyeball frozen sections. The cell nuclei were stained with DAPI.
# ARPE-19 cell monolayer = test: Penetration across the retinal pigment epithelial cell monolayer model; settings: four hours after administration, 3 μM
# Description: The model in FIG. 8B is obtained by seeding the WERI-Rb-1 cells in good growth state at 2×10^4 cells/well in the lower chamber 24 hours before administration.
# Samples (200 μL for each sampling) were taken every 0.5 h from the lower chamber, and 200 μL fresh D-Hank's balanced salt solution was added immediately. A total of 8 samples were taken. The fluorescence signal intensity of the samples was detected with a microplate reader (Ex 490 nm/Em 520 nm).
# The calculation formula of the Apparent Permeability Coefficient (Papp) is as follows:
# wherein, ΔQ/Δt is the change of the molar amount of the polypeptide across the retinal pigment epithelial cell monolayer model per unit time, which can be obtained from the slope by fitting the cumulative permeability and the diffusion time; C0 is the initial concentration of the polypeptide in the donor cell, which is 3 μM; A is the area of the cornea or sclera exposed to the diffusion medium, i.e., the effective diffusion area, which is 0.825 cm^2.
# [11] = read-out: Solubility of drug-polypeptide conjugate
# [12] = intravitreal injection 0.5 mg/mL
# [13] = saline or isotonic, thermodynamic from solid, read-out: Solubility of drug
# [14] = four hours after dropping, 30 μM
compound,measurement,setting,value
CC[C@H](C)[C@H](NC(=O)[C@H](CCCCN)NC(=O)[C@@H](NC(=O)[C@H](CCC(N)=O)NC(=O)[C@@H](N)CCCNC(=N)N)[C@@H](C)CC)C(=O)N[C@@H](Cc1c[nH]c2ccccc12)C(=O)N[C@@H](Cc1ccccc1)C(=O)N[C@@H](Cc1c[nH]c2ccccc12)C(=O)N[C@@H](Cc1c[nH]c2ccccc12)C(=O)N[C@@H](CCCNC(=N)N)C(=O)N[C@@H](CCCNC(=N)N)C(=O)N[C@@H](CCSC)C(=O)N[C@@H](CCCCN)C(=O)N[C@@H](Cc1c[nH]c2ccccc12)C(=O)N[C@@H](CCCCN)C(=O)N[C@@H](CCCCN)C(=O)NC(Cc1ccc(N(CCCl)CCCl)cc1)C(=O)O (stereo partly drawn) [89WP-Mel] (H-RQIKIWFWWRRMKWKK[ξPhe(4-N(CH2CH2Cl)2)]-OH),IC50,ARPE-19 cells [1]; read-out: IC50,177 µM
same,IC50,WERI-Rb-1 cells,0.28 µM
same,IC50,HCEC cells [2]; read-out: IC50,147 µM
same,platelet count versus normal saline eye dropping group,[3],did not significantly decrease
same,red blood cell count versus normal saline eye dropping group,[3],did not significantly decrease
same,white blood cell count versus normal saline eye dropping group,[3],did not significantly decrease
same,safety by HE-stained sections of the various organs,"Fluc/GFP-Rb-1 cells [4]; eye dropping, 1 month",safe
same,solubility at 24 h,[5]; [11],44.7 ± 2.62 mg/mL
CC[C@H](C)[C@H](NC(=O)[C@H](CCCCN)NC(=O)[C@@H](NC(=O)[C@H](Cc1c[nH]c2ccccc12)NC(=O)[C@@H](N)CCCNC(=N)N)[C@@H](C)CC)C(=O)N[C@@H](Cc1c[nH]c2ccccc12)C(=O)N[C@@H](Cc1ccccc1)C(=O)N[C@@H](Cc1c[nH]c2ccccc12)C(=O)N[C@@H](Cc1c[nH]c2ccccc12)C(=O)N[C@@H](CCCNC(=N)N)C(=O)N[C@@H](CCCNC(=N)N)C(=O)N[C@@H](CCSC)C(=O)N[C@@H](CCCCN)C(=O)N[C@@H](Cc1c[nH]c2ccccc12)C(=O)N[C@@H](CCCCN)C(=O)N[C@@H](CCCCN)C(=O)NC(Cc1ccc(N(CCCl)CCCl)cc1)C(=O)O (stereo partly drawn) [289WP-Mel] (H-RWIKIWFWWRRMKWKK[ξPhe(4-N(CH2CH2Cl)2)]-OH; N-terminus assumed),solubility at 24 h,[5]; [11],41.8 ± 1.39 mg/mL
N[C@@H](Cc1ccc(N(CCCl)CCCl)cc1)C(=O)O [melphalan],mice with obvious brain tumor areas,Fluc/GFP-Rb-1 cells [6]; eye dropping 3.0 mg/mL,one
same,tumor growth curve versus normal saline eye dropping group,"Fluc/GFP-Rb-1 cells [6]; eye dropping 10 μl once a day, 3.0 mg/mL melphalan content",no significant difference
same,mice with obvious brain tumor areas,Fluc/GFP-Rb-1 cells [6]; [12],two
same,survival period versus normal saline group,"Fluc/GFP-Rb-1 cells [6]; intravitreal injection 0.5 mg/mL, 2 μL, once per two weeks",no significant difference
same,IC50,ARPE-19 cells [1],100 to 200 µM
same,IC50,ARPE-19 cells [1]; listed as Mel,200 µM
same,IC50,HCEC cells [2]; listed as Mel,113 µM
same,IC50,HCEC cells [2]; Homo sapiens,100 to 200 µM
same,"size of the vitreous seeds of intraocular tumors, order of groups",Fluc/GFP-Rb-1 cells [4]; melphalan solution 3.0 mg/mL eye dropping,normal saline group≈melphalan solution eye dropping group
same,solubility at 24 h,[5]; [13],< 0.001 mg/mL
same,solubility thermodynamic at 24 h,[5]; [13],< 0.001 mg/mL
same,mice with obvious tumor areas in the brain sections,[7]; eye dropping 3.0 mg/mL,1
same,anti-tumor effect in the first month of administration,"[7]; eye drops once a day, 3.0 mg/mL melphalan content",no antitumor effect
same,mice with obvious tumor areas in the brain sections,[7]; [12],2
RQIKIWFWWRRMKWKK [89WP],hemolysis ratio,"red blood cells; pH 5.5, 40 μM",16.4%
same,hemolysis ratio,"red blood cells; pH 5.5, 640 μM",45.1%
same,hemolysis ratio,"red blood cells; pH 6.0, 160 μM",21.7%
same,hemolysis ratio,"red blood cells; pH 6.0, 640 μM",33.3%
same,hemolysis ratio,"red blood cells; pH 7.4, 640 μM",25.8%
same,hemolysis ratio,"red blood cells; pH 7.4, low concentration (<320 μM)",around 10%
carboxyl fluorescein [FAM],fluorescence signal in the cells,HCEC cells [8],no obvious green fluorescence signal
same,fluorescence signal in the cells,ARPE-19 cells [9],no obvious green fluorescence signal
same,time of peak fluorescence intensity in the retina,[10]; 10 μL of 30 μM dropped into conjunctival sac,4 h
same,retinal fluorescence intensity versus blank retina,[10]; 8 hours after eye dropping,no significant difference
same,"fluorescence signal in anterior ocular segment (cornea), whole eye sections",[10]; [14],no obvious green or red fluorescence signal
same,"fluorescence signal in posterior ocular segment (retina), whole eye sections",[10]; [14],no obvious green or red fluorescence signal
same,fluorescence signal at the donor side of the cell monolayer,ARPE-19 cell monolayer,no green fluorescence signal
